We go through one compound from patent publication US7655756B2 (Johnson & Johnson Pharmaceutical Research & Development, LLC, priority 2005, dated 2010).

By ΔTm is commonly meant the change in melting temperature against a reference sample.

One assay addresses T1, ERα (Homo sapiens, UniProt P03372).
T1 sequence (P03372 1-595): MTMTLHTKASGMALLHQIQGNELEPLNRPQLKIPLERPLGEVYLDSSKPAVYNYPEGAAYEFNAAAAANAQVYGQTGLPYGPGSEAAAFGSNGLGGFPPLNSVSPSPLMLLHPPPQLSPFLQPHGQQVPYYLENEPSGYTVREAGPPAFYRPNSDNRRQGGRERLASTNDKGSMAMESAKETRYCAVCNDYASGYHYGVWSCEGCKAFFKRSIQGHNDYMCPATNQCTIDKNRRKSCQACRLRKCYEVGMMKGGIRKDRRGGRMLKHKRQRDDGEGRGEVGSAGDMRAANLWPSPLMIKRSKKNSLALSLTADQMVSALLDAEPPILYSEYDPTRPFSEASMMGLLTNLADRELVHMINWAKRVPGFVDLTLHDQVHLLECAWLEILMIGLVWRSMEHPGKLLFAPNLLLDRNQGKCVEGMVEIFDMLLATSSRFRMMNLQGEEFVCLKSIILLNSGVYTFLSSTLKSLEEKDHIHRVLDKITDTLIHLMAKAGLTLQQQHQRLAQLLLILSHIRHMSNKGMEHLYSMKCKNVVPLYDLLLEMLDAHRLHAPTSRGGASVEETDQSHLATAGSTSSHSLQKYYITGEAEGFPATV
Briefly: ThermoFluor thermal shift assay, ERα. Type of assay: binding.

For assay [1], the target named is T2, ligand binding domain of ERRγ (Homo sapiens, UniProt P62508).
T2 construct: 6His; made in house; host or cells: E. coli BL21(DE3)
T2 sequence (P62508 229-458): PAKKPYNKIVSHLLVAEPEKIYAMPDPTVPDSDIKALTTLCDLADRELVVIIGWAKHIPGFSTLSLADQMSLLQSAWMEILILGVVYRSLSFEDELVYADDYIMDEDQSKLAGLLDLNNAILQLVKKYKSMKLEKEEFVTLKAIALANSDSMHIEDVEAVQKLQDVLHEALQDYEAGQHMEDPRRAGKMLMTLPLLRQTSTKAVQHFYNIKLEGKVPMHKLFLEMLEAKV
Description: ThermoFluor thermal shift assay, ERRγ ligand binding domain. Conditions: 0.1 mg/mL protein, 25 mM HEPES pH 8.0, Tm free protein 49.6 °C. As to the method:
The vector was in E. coli BL21(DE3) and cultured in Minimal media (M9) at 37° C. to an OD595 0.6-0.8, followed by induction at 15° C. with 0.4 mM IPTG for 20 hours. The next day, the culture was harvested and lysed in buffer A (Buffer A: 20 mM Tris-HCl, pH 7.5, 0.4 M NaCl and 5 mM Imidazole) using an Emulsiflex-C5 french press (Avestin). Lysates were spun at 40,000×g for 45 minutes to remove insoluble material. The clarified lysate was applied on a Ni-NTA column and eluted with a linear gradient of imidazole. The protein was further purified by applying the eluent on a Superdex 200 HR 10/30 column (Amersham Pharmacia Biotech) equilibrated with Buffer B (Buffer B: 20 mM Tris-HCl pH 7.5, 0.2M NaCl, 1 mM EDTA and 1 mM DTT). […] Fractions were pulled and concentrated to 4 mg/ml and frozen in liquid nitrogen and stored at −80° C.
The ligand binding domain of ERRγ was screened against a library of known estrogen activators and a generic drug library using ThermoFluor®. ThermoFluor® is a miniaturized thermal shift assay, that has been developed for HTS applications; as a secondary assay for confirmation and characterization of hits; and as a functional assay to characterize orphan proteins. ThermoFluor® exploits the well-described phenomenon of ligand induced stabilization of macromolecules. Ligand binding energy adds directly to the ground state energy of a macromolecule and results in increased thermal stability. The degree of stabilization is proportional to the binding affinity of the ligand for the macromolecule.
Assay plates were prepared by dispensing 2 μL of a protein-dye solution and 2 μL of the test compound in a 384-well plate. […] Finally 1 μL of mineral oil was dispensed on top to prevent evaporation during the high throughput screen (HTS). ThermoFluor® is an HTS assay that measures protein unfolding based on fluorescence detection of the denatured form of the protein. The reporter for the protein unfolding event is the environmentally sensitive dye ANS that is incorporated in the screening buffer. During a typical experiment the 384-well plate is heated at a ramping rate of 1° C./min and the thermal unfolding of the protein is monitored at 1° C. intervals by measuring fluorescence changes detected through a CCD camera. Captured images are integrated and a melting curve is generated that relates fluorescence to fraction of unfolded protein as a function of temperature. […] Hits were identified from the screen by measuring an increase in the melting temperature of the protein.
In order to estimate binding affinities, it was taken into account that the oligomeric state of ERRγ which is a dimer (N2), and that of a single ligand (Lf) can interact per monomer subunit with equal affinity. The melting curve for such a system is described by the following three equilibria:
To compare dissociation constants at a common reference temperature, Tref, the following equation was used: […]
In the thermodynamic treatment of the data the following assumptions were made: i) the small ligand interacts only with the folded state of the protein, ii) the reactions are reversible; iii) the unfolding protein reaction is a two-state process and iv) ideal dilute solutions are being used (specific activity for protein and ligands is equal to 1).
Background: In DSF a fluorescence change marks the thermal transition of the protein.

The next assay concerns the target ERβ (Homo sapiens, UniProt Q92731). Briefly: ThermoFluor thermal shift assay, ERβ. Type of assay: binding.
The target in the next assay is T3, ERRβ (Homo sapiens, UniProt O95718).
T3 sequence (O95718 208-432 limits assumed): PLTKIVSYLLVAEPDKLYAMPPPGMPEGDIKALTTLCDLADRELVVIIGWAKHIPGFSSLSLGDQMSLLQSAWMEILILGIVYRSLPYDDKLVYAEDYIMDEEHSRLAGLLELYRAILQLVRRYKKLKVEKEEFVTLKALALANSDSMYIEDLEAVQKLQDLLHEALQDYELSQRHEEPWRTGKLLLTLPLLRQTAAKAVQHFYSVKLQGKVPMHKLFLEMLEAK
Description: ThermoFluor thermal shift assay, ERRβ. Type of assay: binding. Conditions: 100 μM test compound; 0.1 mg/mL protein, 25 mM HEPES pH 8.0; Tm free protein 47.5 °C; read-out: ΔTm, thermal stabilization of ERRβ.

ERβ, sequence (Q92731 whole entry, species assumed): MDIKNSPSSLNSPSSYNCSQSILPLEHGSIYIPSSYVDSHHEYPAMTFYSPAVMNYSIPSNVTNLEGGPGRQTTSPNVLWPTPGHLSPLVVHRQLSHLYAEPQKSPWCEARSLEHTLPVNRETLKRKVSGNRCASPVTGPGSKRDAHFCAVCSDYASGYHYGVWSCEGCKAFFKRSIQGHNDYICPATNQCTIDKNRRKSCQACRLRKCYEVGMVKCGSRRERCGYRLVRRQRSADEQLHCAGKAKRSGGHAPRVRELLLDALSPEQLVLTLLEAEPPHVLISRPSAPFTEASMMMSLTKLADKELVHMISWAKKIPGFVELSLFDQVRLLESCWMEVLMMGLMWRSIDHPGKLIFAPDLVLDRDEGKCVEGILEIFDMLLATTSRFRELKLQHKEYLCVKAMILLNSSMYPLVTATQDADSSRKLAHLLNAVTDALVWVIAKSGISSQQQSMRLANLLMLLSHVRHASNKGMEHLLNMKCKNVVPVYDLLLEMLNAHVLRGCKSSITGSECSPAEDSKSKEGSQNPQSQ

With `Cc1cc(O)ccc1Cl` [ClCH3Ph, 4-chloro, 3-methyl phenol], the Kd on ERα (calculated at reference temperature 25 °C from ΔTm of Table II, ΔHu 112 kcal/mol, read-out: Estimated dissociation constant, ERα) is 37.3 µM; at ERβ, 3.05 µM. For the same compound, the ΔTm at 100 µM at ERα (pH 8, read-out: ΔTm, thermal stabilization of ERα) is 0.4 °C; in assay [1] (pH 8, read-out: ΔTm, thermal stabilization of ERRγ, 100 μM test compound), 4 to 5.7 °C; at ERβ (pH 8, read-out: ΔTm, thermal stabilization of ERβ), 2.4 °C; on ERRβ, 0.2 °C. The “ΔTm, thermal stabilization of ERRγ” value in assay [1] (100 μM test compound) worked out at 3.9 °C.
